According to patent publication US20210177722A1, “Phytic Acid Ester Derivative” (NATIONAL UNIVERSITY CORPORATION KUMAMOTO UNIVERSITY, priority 2018, published 2021):

Legend:
[1] = tested on: K562 cell (chronic myelogenous leukemia cell); assay: MTT assay, K562 cell; format: cell-based; details: 1 μM or 10 μM, 8 hours or 24 hours
Experimental: (§1) In this example, the cytotoxic effect of Pro-IP6 on four types of blood cancer cell lines and a cell derived from a healthy person was examined by MTT assay. […] It is possible to check viability of cultured cells by MTT assay. Cancer cell lines (1.74×10^4 cells/well, culture fluid: 200 μL) • MT-2 cell (HTLV transformed human T cell leukemia cell) • […] cell (human T-lymphoblastoid cell) • Jurkat cell (human T-lymphocyte cell) • K562 cell (chronic myelogenous leukemia cell) Each of the above-described types of cells was seeded in a 96-well plate, and was cultured for 8 hours for each of the various cancer cell lines and for 16 hours for PMBC. Thereafter, DMSO (1%, Fujifilm Wako Pure Chemical Corporation), an aqueous solution (1%) of IP6 (final concentration: 1 μM or 10 μM, Sigma Aldrich), or a DMSO solution (1%) of Pro-IP6 (final concentration: 1 μM or 10 μM) was added thereto, followed by culturing for 8 hours or 24 hours. An MTT reagent (Dojindo Laboratories, 1.1 mg/mL) was added in an amount of 50 μL per well, and the resultant was cultured for another 4 hours. The thus precipitated crystal was collected, a supernatant was removed, and 100 μL of DMSO was added thereto to completely dissolve. The resultant solution was measured for an absorbance (550 nm).

[2] = tested on: AMPK; assay: Western blotting (2), anti-pAMPK antibody, Jurkat cell; format: cell-based, human; details: 1 μM or 10 μM, 8 hours or 24 hours
Experimental: In this example, in the same manner as in Example 4, the action mechanism for killing cells by Pro-IP6 was checked by Wester blotting using a Jurkat cell and various antibodies. Jurkat cells (1×10^5 cells/well, culture fluid: 500 μL) were seeded in a 24-well plate to be cultured overnight. Thereafter, DMSO (1%, Fujifilm Wako Pure Chemical Corporation), an aqueous solution (1%) of IP6 (final concentration 10 μM, Sigma Aldrich), or a DMSO solution (1%) of Pro-IP6 (final concentration: 1 μM or 10 μM) was added thereto, followed by culturing for 8 hours or 24 hours. A supernatant was removed, the resultant was washed with 1× PBS (−) once, Laemmli sample buffer was added thereto, and the resultant was boiled at 100° C. for […] to dissolve the cells. The resultant was subjected to electrophoresis and then transferred onto a membrane (Millipore). […] Detection was performed using ImmunoStar LD (Fujfilm Wako Pure Chemical Corporation).

[3] = target: T1, virus protein Gag (Human immunodeficiency virus type 1 group M subtype B, UniProt P12493); assay: Intracellular aggregation of virus protein Gag (fluorescence microscope); format: cell-based; details: HeLa cells, 10 μM, 4 hours
T1 construct: aggregation of virus protein Gag or the MA region thereof; Venus; FLAG (C); expressed in transfected cells; host or cells: HeLa cells
Experimental: HeLa cells (0.5×10^5 cells/well, culture fluid: 300 μL) were seeded in a 8-well chamber slide (Thermo fisher scientific) to be cultured overnight. […] (Thermo fisher scientific) was used to introduce pUC or pEF-Gag(p17)cFLAG, pNL4-3/Gag-Venus, and the resultant was cultured for 10 hours. Thereafter, DMSO (1%, Fujifilm Wako Pure Chemical Corporation) or Pro-IP6 (final concentration: 10 μM) was added thereto, followed by culturing for another 4 hours. The thus obtained cells were fixed with 4% paraformaldehyde (Tokyo Chemical Industry Co., Ltd.), dyed with Hoechst 33342 (Thermo fisher scientific), and observed with a fluorescence microscope, BZ-X800 (Keyence).

[4] = tested on: Caspase-3; assay: Western blotting (1), Caspase-3 antibody, Jurkat cell; format: cell-based, human; details: 10 μM
Experimental: (§2) In this example, the action mechanism for killing cells by Pro-IP6 was studied by Wester blotting using a Jurkat cell and various antibodies. Jurkat cells (1×10^5 cells/well, culture fluid: 500 μL) were seeded in a 24-well plate to be cultured overnight. Thereafter, DMSO (1%, Fujifilm Wako Pure Chemical Corporation), an aqueous solution (1%) of IP6 (final concentration: 10 μM, Sigma Aldrich), or a DMSO solution (1%) of Pro-IP6 (final concentration: 1 μM or 10 μM) was added thereto, followed by culturing for 8 hours or 24 hours. A supernatant was removed, the resultant was washed with 1× PBS (−) once, Laemmli sample buffer was added thereto, and the resultant was boiled at 100° C. for 1 hour to dissolve the cells. […] Detection was performed using ImmunoStar LD (Fujifilm Wako Pure Chemical Corporation).

[5] = tested on: Akt; assay: Western blotting (1), anti-phospho-Akt (Thr308) antibody, Jurkat cell; format: cell-based, human; details: 8 hours or 24 hours
Experimental: as §2

[6] = tested on: Jurkat cell; assay: Cell viability test (flowcytometry, Annexin V-FITC / 7-AAD); format: cell-based, human; details: 10 μM, 24 hours
Experimental: In this example, a cell viability test (flowcytometry) was performed using a Jurkat cell, that is, a human T cell-derived leukemia cell. Jurkat cells (1×10^5 cells/well, culture fluid: 500 μL) were seeded in a 24-well plate (Iwaki) to be cultured overnight. Thereafter, DMSO (1%, Fujifilm Wako Pure Chemical Corporation), an aqueous solution (1%) of IP6 (final concentration: 10 μM, Sigma Aldrich), or a DMSO solution (1%) of Pro-IP6 (myo-inositol hexaphosphate dodecakis(butyryloxymethyl) ester (4) synthesized in Example 1) (final concentration: 10 μM) was added thereto, and the resultant was cultured for 24 hours. A supernatant was removed, the resultant was washed with 1× PBS (−) once, 100 μL of 5× binding solution (PromoCell) was added thereto, and Annexin V-FITC (PromoCell) and 7-AAD (Becton, Dickinson and Company) were added thereto to perform a reaction for 15 minutes. Thereafter, measurement was performed using FACS Calibur (Becton, Dickinson and Company), and analysis was performed using FlowJo (Becton, Dickinson and Company).

[7] = tested on: M8166 cell (human T-lymphoblastoid cell); assay: MTT assay, M8166 cell; format: cell-based
Experimental: as §1

[8] = tested on: MT-2 cell (HTLV transformed human T cell leukemia cell); assay: MTT assay, MT-2 cell; format: cell-based; details: 1 μM or 10 μM, 8 hours or 24 hours
Experimental: as §1

[9] = tested on: Jurkat cell (human T-lymphocyte cell); assay: MTT assay, Jurkat cell; format: cell-based
Experimental: as §1

[10] = tested on: PARP-1; assay: Western blotting (1), anti-PARP-1 antibody, Jurkat cell; format: cell-based, human; details: 10 μM
Experimental: as §2

## CCCC(=O)OCOP(=O)(OCOC(=O)CCC)O[C@H]1[C@H](OP(=O)(OCOC(=O)CCC)OCOC(=O)CCC)[C@@H](OP(=O)(OCOC(=O)CCC)OCOC(=O)CCC)[C@H](OP(=O)(OCOC(=O)CCC)OCOC(=O)CCC)[C@@H](OP(=O)(OCOC(=O)CCC)OCOC(=O)CCC)[C@H]1OP(=O)(OCOC(=O)CCC)OCOC(=O)CCC [Pro-IP6, myo-inositol hexaphosphate dodecakis(butyryloxymethyl) ester]
[1]
  lowering of relative cell viability: ≥ 25%
[2]
  activation of AMPK (pAMPK): activates AMPK
[3]
  aggregation of virus protein Gag or MA region in cell: aggregated
[4]
  cleavage of Caspase-3 (induction of apoptosis): cleavage of PARP-1 and Caspase-3 was observed
[5]; 1 μM
  phosphorylation of Akt: inhibits phosphorylation of Akt
[5]; 10 μM
  phosphorylation of Akt: inhibits phosphorylation of Akt
[6]
  induction of apoptosis (Annexin V-FITC / 7-AAD flow cytometry): induction of apoptosis in a Jurkat cell, that is, human T cell-derived leukemia cell, was observed
[7]
  cytotoxic effect at 10 μM: most of the cells were killed
[7]; M8166 cell, 1 μM or 10 μM, 8 hours or 24 hours
  lowering of relative cell viability: ≥ 25%
[8]
  lowering of relative cell viability: ≥ 25%
[9]
  cytotoxic effect at 10 μM: most of the cells were killed
[9]; Jurkat cell, 1 μM or 10 μM, 8 hours or 24 hours
  lowering of relative cell viability: ≥ 25%
[10]
  cleavage of PARP-1 (induction of apoptosis): cleavage of PARP-1 and Caspase-3 was observed
